The values that follow come from article PMC10303687 (Protein Science : A Publication of the Protein Society, 2023).

Entries after “also recorded” stand apart in the source; their conditions may differ. Ends that are not written are not given here.

Assay [1] has as its target T1, MDM2 D. rerio (SWIB domain) (Danio rerio, UniProt O42354).
T1 construct: N-terminal fusion: NusA-TEV-His6-PreScission (pSY10) or His6-GST-PreScission (pETM33); made in house; host or cells: Escherichia coli BL21 (DE3) pLys or BL21 (DE3)
The experiment in a line: Fluorescence polarization displacement of FITC-labeled human p53TAD 15–26 (IC50 to KD/Ki). The conditions noted are these: FP displacement; low constant FITC-labeled p53TADHuman and MDM2 D. rerio, displaced by excess peptide; room temperature, pH 7.4; KD calculated from IC50; mean ± SEM. The class given is binding. How it is done:
FP can detect weak affinities (K D values in the high μM range), although the accuracy is lower than for the other methods. In FP experiments we observed direct binding using a FITC‐labeled p53TAD peptide and used unlabeled peptides containing the binding motif to displace the labeled one. FP experiments were performed at room temperature using the same buffer as kinetic experiments. […] The polarization was measured at excitation/emission wavelengths of 485/535 nm on a SpectraMax iD5 plate reader. […] Errors were calculated as standard error of mean (SEM) of calculated K D values for the displacer peptides resulting from independent fit of IC50 values for the replicate measurements. […]
Supplementary Excel File 2. […] IC50 values were determined as described in the materials section. The theory behind the conversion of IC50 values to Ki values (=KD) is described in Nikolovska-Coleska, et al., Development and optimization of a binding assay for the XIAP BIR3 domain using fluorescence polarization. […]

In assay [2] the target is T2, MDM2 H. sapiens (SWIB domain) (Homo sapiens, UniProt Q00987).
T2 construct: The reconstructed MDM2 variants used in the present study correspond to residues 17–125 of human MDM2; N-terminal fusion: NusA-TEV-His6-PreScission (pSY10) or His6-GST-PreScission (pETM33); made in house; host or cells: Escherichia coli BL21 (DE3) pLys or BL21 (DE3)
The assay is described as follows: Stopped-flow binding kinetics (kon, koff; KD = koff/kon). The conditions noted are these: 10°C; for koff: pre-formed complex 1 μM:1 μM displaced by 10–20 μM dansylated human p53TAD, pH 7.4, SD of two or three replicates; for kon: pH 7.4, MDM2 H. sapiens 0.5–2 μM mixed with 1–10 μM p53TAD, kobs vs concentration, pH 7.4, curve fitting error.

The target in assay [3] is T1, MDM2 D. rerio (SWIB domain). The assay is described as above. The conditions noted are these: for kon: MDM2 D. rerio 0.5–2 μM mixed with 1–10 μM peptide, curve fitting error; for kon / koff: pH 7.4; for koff: complex 1 μM:1 μM displaced by 10–20 μM dansylated human p53TAD, SD of two or three replicates.
Assay [4] concerns the target MDM2 T. adhaerens (SWIB domain). The assay is described as follows: Fluorescence polarization displacement of FITC-labeled human p53TAD 15–26 (IC50 to KD/Ki). The class given is binding, Trichoplax adhaerens. Particulars: FP displacement, FITC-labeled p53TAD H. sapiens 15–26 6 or 10 nM and MDM2 T. adhaerens 50 μM constant, dilution series of native p53TAD, room temperature, pH 7.4. Here is the method: FP can detect weak affinities (K D values in the high μM range), although the accuracy is lower than for the other methods. In FP experiments we observed direct binding using a FITC‐labeled p53TAD peptide and used unlabeled peptides containing the binding motif to displace the labeled one. FP experiments were performed at room temperature using the same buffer as kinetic experiments. For saturation experiments the FITC labeled human peptide was held at a constant concentration of 6 or 10 nM and mixed with the 1:1 dilution series of different MDM2 proteins (the highest concentration of proteins were 89, 37, 50, 22, and 7.3 μM for T. adhaerens, M. trossulus, I. scapularis, L. camtschaticum and H. sapiens MDM2, respectively) in black, non‐binding surface, flat bottom 96‐well plates (Corning Life Sciences). The polarization was measured at excitation/emission wavelengths of 485/535 nm on a SpectraMax iD5 plate reader. […] The resulting displacement curve was fit to a sigmoidal dose‐response (variable slope) equation to obtain an IC50 value, which was in turn used to calculate K D values for the competing peptides as described previously(Nikolovska‐Coleska et al., [2004]) (Excel File 2 in Data S1). Errors were calculated as standard error of mean (SEM) of calculated K D values for the displacer peptides resulting from independent fit of IC50 values for the replicate measurements.
Supplementary Excel File 1. Sequences of constructs used in the experiments. The sequence and name for each interaction motif in p53TAD and MDM2 SWIB domain used in binding experiments in the study.
Supplementary Excel File 2. Calculation of Ki from IC50 values. IC50 values were determined as described in the materials section. The theory behind the conversion of IC50 values to Ki values (=KD) is described in Nikolovska-Coleska, et al., Development and optimization of a binding assay for the XIAP BIR3 domain using fluorescence polarization. […]
p53TAD. The posterior probability is shown for each amino acid for each position for the […]
Supplementary Text File 1. Fasta file for p53TAD. […]
Background: Polarisation of emitted light reports the rotation of a fluorescent probe.

T1 sequence (O42354 19-102 limits assumed): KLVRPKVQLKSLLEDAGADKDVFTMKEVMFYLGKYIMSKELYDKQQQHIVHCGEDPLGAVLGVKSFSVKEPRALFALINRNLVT
T2 sequence (Q00987 17-125): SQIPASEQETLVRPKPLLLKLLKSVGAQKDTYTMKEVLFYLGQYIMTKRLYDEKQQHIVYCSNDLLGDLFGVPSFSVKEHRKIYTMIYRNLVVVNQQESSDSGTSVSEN

As to Ac-GQDVLNQLLEML [p63TAD D. rerio], the Kd (as a rule, a measure of binding affinity in units of concentration) in assay [1] is 130 ± 2 µM.

As to Ac-SQETFNHLWNTL [p53TADBilateria ^ML], the koff (in general, the first-order rate constant of dissociation) in assay [2] (MDM2 H. sapiens) came out at 11 ± 2 s⁻¹. Moreover, the kon (commonly the second-order rate constant of association) in assay [2] worked out at 1.9e+07 ± 1e+06 M⁻¹ s⁻¹.

Substance “Ac-SQETFDFLWKSL [p53TADBilateria ^AltAll]” had a koff in assay [2] (MDM2 H. sapiens) of 2.6 ± 0.3 s⁻¹. Further, the kon in assay [2] stood at 1.5e+07 ± 1e+06 M⁻¹ s⁻¹.

Regarding “Ac-DSQEFAELWEKN (N-terminus assumed) [p53TAD D. rerio ^14–26]”, the “K D” value in assay [3] (MDM2 D. rerio, KD = koff/kon, stopped-flow, 10°C, 20 mM sodium phosphate pH 7.4, 150 mM NaCl, 1 mM TCEP, propagated error) is listed as “absence of interaction; also recorded: non‐measurable affinity”.

In the case of Ac-SQETFEYLWNTL [p53TAD M. trossulus], the “K D” value in assay [2] (MDM2 H. sapiens, KD = koff/kon, Trp fluorescence ex 280 nm/em 330 ± 25 nm, 20 mM sodium phosphate pH 7.4, 150 mM NaCl, 1 mM TCEP, propagated error, 12-mers show non-native high affinity) is “high affinity”.

For Ac-SQDTFSDLWNQL [p53TAD1R ^AltAll], the koff in assay [2] (MDM2 H. sapiens) was 0.7 ± 0.04 s⁻¹. This substance also registered a kon in assay [2] of 2.9e+07 ± 2e+06 M⁻¹ s⁻¹.

“Ac-SQETFSDLWNML [p53TADFishes/Tetrapods ^ML]”: the kon in assay [3] (stopped-flow, 10°C) was 2.46e+07 ± 800000 M⁻¹ s⁻¹. Also, the koff in assay [3] (MDM2 D. rerio, 10°C) is 2.3 ± 0.2 s⁻¹.

“Ac-SQETFSDLWNLL [p53TADReptiles/Mammals ^ML]” gave a koff in assay [2] (MDM2 H. sapiens) of 0.32 ± 0.04 s⁻¹. The on-rate constant (kon) in assay [2] stood at 4.2e+07 ± 2e+06 M⁻¹ s⁻¹.

Regarding “Ac-SQETFSDLWNML [p53TADReptiles/Mammals ^AltAll]”, the koff in assay [2] (MDM2 H. sapiens) is 0.36 ± 0.01 s⁻¹. In addition, the kon in assay [2] is 3.8e+07 ± 2e+06 M⁻¹ s⁻¹.

Take Ac-EGPTFEHLWSTL [p73TAD D. rerio]: in assay [3], the affinity, expressed as Kd, was 0.12 ± 0.01 µM. The substance also displayed a kon in assay [3] (stopped-flow, 10°C) of 3.2e+07 ± 1e+06 M⁻¹ s⁻¹. Moreover, in assay [3] (MDM2 D. rerio, 10°C), the koff is 3.7 ± 0.06 s⁻¹.

In the case of Ac-SQETFNHLWNML [p53TAD1R ^ML], the koff in assay [2] (MDM2 H. sapiens) came to 1.37 ± 0.06 s⁻¹. In assay [2], this substance returned a kon of 1.67e+07 ± 900000 M⁻¹ s⁻¹.

Regarding “GPMGMSDEPTLSQLSFSQELSSSWQLMIDEITQGKFNTNEDEGTAIYSYSEQNPDDRYLMRPNEPQYISAGYPDGQVGQLPREFAVNQIPSPRTFSDNVSSSADKAREAYYGQAVNGVSAETSPPLKRDP [full-length p53TAD, residues 1–126 of T. adhaerens p53]”, the “K D” value in assay [4] is reported as “did not show binding”; in assay [4] (listed as full‐length p53TAD), “failed to displace”; in assay [4] (listed as full‐length p53TAD from T. adhaerens) it was “no binding”.

Substance “Ac-SQESFSDLWNLL [p53TADFishes/Tetrapods ^AltAll]” registered a koff in assay [2] (MDM2 H. sapiens) of 0.52 ± 0.04 s⁻¹. In assay [2], this substance returned a kon of 2.73e+07 ± 700000 M⁻¹ s⁻¹.
